Laboratory results taken from patent US5665736A, “N-benzoylmethyl-piperidines” (priority 1995, dated 1997).
Structures can show the parent of a compound that is named as a salt.

System: mice
Assay: Irwin test in mice, oral administration
Type: in vivo
From the text: These findings are most important, since the safety range of the compounds of this invention makes them be highly useful for their clinical application.

Fc1ccc([C@@H]2CCNC[C@H]2COc2ccc3c(c2)OCO3)cc1 [Paroxetine, (-)-trans-4-(p-fluorophenyl)-3-[[3,4-(methylenedioxy)phenoxy]methyl]-piperidine, reference compound]
signs of toxicity, Irwin test (400 mg/kg): convulsions, mydriasis and Straub tail

O=C(CN1CC[C@@H](c2ccc(F)cc2)[C@H](COc2ccc3c(c2)OCO3)C1)c1ccc(Cl)cc1 [Example 2, (-)-Trans-N-p-chlorobenzoylmethyl-4-(p-fluorophenyl)-3-[[3,4-(methylenedioxy)phenoxy]methyl]-piperidine hydrochloride]
signs of toxicity, Irwin test (800 mg/kg): merely the onset of manifestations of hyperactivity was observed

O=C(CN1CC[C@@H](c2ccc(F)cc2)[C@H](COc2ccc3c(c2)OCO3)C1)c1ccc(F)cc1 [Example 1, (-)-Trans-N-p-fluorobenzoylmethyl-4-(p-fluorophenyl)-3-[[3,4-(methylenedioxy)phenoxy]methyl]-piperidine hydrochloride]
signs of toxicity, Irwin test (600 mg/kg): did not show any sign of toxicity
